Data published in PubChem BioAssay (NCI).
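All cell lines were grown in 96-well plates and treated with compound for 48 hours. GI50 is the concentration that inhibits growth by half. TGI: total growth inhibition.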

Legend:
Assay in all cases: NCI anticancer screen, dose series, 48 h
MDA-MB-468 breast = tested on: MDA-MB-468 breast
MDA-MB-231 breast = tested on: MDA-MB-231 breast
DU-145 prostate = tested on: DU-145 prostate
EKVX NSCLC = tested on: EKVX NSCLC
MCF7 breast = tested on: MCF7 breast
MOLT-4 leukemia = tested on: MOLT-4 leukemia
OVCAR-3 ovarian = tested on: OVCAR-3 ovarian
OVCAR-5 ovarian = tested on: OVCAR-5 ovarian
T-47D breast = tested on: T-47D breast
NCI-H226 lung = tested on: NCI-H226 lung
ACHN renal = tested on: ACHN renal
IGROV1 ovarian = tested on: IGROV1 ovarian
NCI-H23 lung = tested on: NCI-H23 lung
K-562 leukemia = tested on: K-562 leukemia
CAKI-1 renal = tested on: CAKI-1 renal
A549 NSCLC = tested on: A549 NSCLC
UACC-62 melanoma = tested on: UACC-62 melanoma
HCT-15 colon = tested on: HCT-15 colon
HT29 colon = tested on: HT29 colon
SNB-75 CNS = tested on: SNB-75 CNS
U251 CNS = tested on: U251 CNS
SF-295 CNS = tested on: SF-295 CNS
SK-MEL-28 melanoma = tested on: SK-MEL-28 melanoma
786-0 renal = tested on: 786-0 renal
KM12 colon = tested on: KM12 colon
HCC-2998 colon = tested on: HCC-2998 colon
PC-3 prostate = tested on: PC-3 prostate
CCRF-CEM leukemia = tested on: CCRF-CEM leukemia
HCT-116 colon = tested on: HCT-116 colon
A498 renal = tested on: A498 renal
HOP-62 NSCLC = tested on: HOP-62 NSCLC
SF-268 CNS = tested on: SF-268 CNS
NCI-H522 lung = tested on: NCI-H522 lung
OVCAR-8 ovarian = tested on: OVCAR-8 ovarian
SNB-19 CNS = tested on: SNB-19 CNS
RXF 393 renal = tested on: RXF 393 renal
HS 578T breast = tested on: HS 578T breast
RPMI-8226 leukemia = tested on: RPMI-8226 leukemia
HOP-92 NSCLC = tested on: HOP-92 NSCLC
BT-549 breast = tested on: BT-549 breast
SF-539 CNS = tested on: SF-539 CNS
SW-620 colon = tested on: SW-620 colon
OVCAR-4 ovarian = tested on: OVCAR-4 ovarian
LOX IMVI melanoma = tested on: LOX IMVI melanoma
SK-OV-3 ovarian = tested on: SK-OV-3 ovarian
NCI-H460 lung = tested on: NCI-H460 lung
UO-31 renal = tested on: UO-31 renal
SN12C renal = tested on: SN12C renal
SK-MEL-5 melanoma = tested on: SK-MEL-5 melanoma
COLO 205 colon = tested on: COLO 205 colon
HL-60(TB) leukemia = tested on: HL-60(TB) leukemia
SR leukemia = tested on: SR leukemia
M14 melanoma = tested on: M14 melanoma
MALME-3M melanoma = tested on: MALME-3M melanoma
MDA-MB-435 = tested on: MDA-MB-435
UACC-257 melanoma = tested on: UACC-257 melanoma
TK-10 renal = tested on: TK-10 renal

## CC(C)=CCC[C@](C)(O)[C@H]1CC[C@]2(C)[C@@H]1CC[C@@H]1[C@@]3(C)CC[C@H](OC(=O)CCC(=O)O)C(C)(C)[C@@H]3CC[C@]12C
MDA-MB-468 breast
  GI50: 22300 nM
  TGI: 96100 nM

## CCn1cc(C2NC(=O)c3cc(F)ccc3N2)c2cccc(Cl)c21 (configuration not stated)
MDA-MB-468 breast
  GI50: 292 nM
  TGI: 6130 nM

## CN1C=CN(Cc2ccc(-c3ccccn3)nc2)[CH-]1.CN1C=CN(Cc2ccc(-c3ccccn3)nc2)[CH-]1.[Au+3]
MDA-MB-468 breast
  GI50: 337 nM
  TGI: 2530 nM

## Fc1cc(Nc2ccc3c(OCCCN4CCOCC4)cccc3n2)ccc1Cl
MDA-MB-468 breast
  GI50: 2080 nM
  TGI: 4430 nM

## O=C(/C=C/c1cccs1)Nc1ncc(Cc2ccccc2F)s1
MDA-MB-468 breast
  GI50: 364 nM
  TGI: > 100000 nM

## O=C(O)CCN1C(=O)/C(=C/C(Cl)=C/c2ccccc2)SC1=S
MDA-MB-468 breast
  GI50: 1200 nM
  TGI: 2980 nM

## NC(=NC1C2CC3CC(C2)CC1C3)Nc1ccc(I)cc1 (configuration not stated)
MDA-MB-468 breast
  GI50: 1960 nM
  TGI: 4680 nM

## O=C(O)c1c(Cl)c(Cl)c(Cl)c(Cl)c1-c1c2cc(I)c(=O)c(I)c-2oc2c(I)c(O)c(I)cc12
MDA-MB-468 breast
  GI50: 36900 nM
  TGI: 76200 nM

## COc1ccccc1OCC(O)CO (configuration not stated)
MDA-MB-468 breast
  GI50: > 100000 nM
  TGI: > 100000 nM

## COc1cc([N+](=O)[O-])c2ncccc2c1O
MDA-MB-468 breast
  GI50: 35600 nM
  TGI: > 100000 nM

## Brc1ccc2[nH]cc(-c3nc(-c4c[nH]c5ccncc45)cs3)c2c1
MDA-MB-468 breast
  GI50: 1770 nM
  TGI: 3450 nM

## COc1cc(C(=O)c2c(-c3ccccc3)oc3ccccc23)cc(OC)c1O
MDA-MB-468 breast
  GI50: 362 nM
  TGI: 3480 nM

## CCN(CC)c1ccc(/C=N\NC(=O)c2cccc(Nc3ccnc(C(F)(F)F)c3)c2)c(O)c1
MDA-MB-468 breast
  GI50: 239 nM
  TGI: 3510 nM

## Cc1cc(C#Cc2ccccc2)ccc1-n1c(/C=C/c2ccc(O)cc2)nc2ccccc2c1=O
MDA-MB-468 breast
  GI50: 3780 nM
  TGI: > 100000 nM

## NC(=O)c1ccc(-c2c3ccccc3cc3c2ccc2ccccc23)cc1
MDA-MB-468 breast
  GI50: 1340 nM
  TGI: 6970 nM

## O=C(Nc1ccc(-c2nc3ccc(NC(=O)c4ccc(Cl)cc4)cc3[nH]2)cc1)c1ccc(Cl)cc1
MDA-MB-468 breast
  GI50: 2580 nM
  TGI: 8450 nM

## Cc1ccc(Nc2ccnc(Nc3cccc(C(N)=O)c3)n2)cc1O
MDA-MB-468 breast
  GI50: 2620 nM
  TGI: 9560 nM

## COCCn1cc(-c2csc(-c3c[nH]c4ccc(F)cc34)n2)c2cccnc21
MDA-MB-468 breast
  GI50: 2440 nM
  TGI: 8510 nM

## N#CC(C#N)=C/C=C/c1cccc([N+](=O)[O-])c1
MDA-MB-468 breast
  GI50: 767 nM
  TGI: 2280 nM

## Cn1cc(/C=C2\C(=O)Nc3cccnc32)c2ccccc21
MDA-MB-468 breast
  GI50: 12000 nM
  TGI: > 25000 nM

## Cc1cc(N=C(N)c2ccccc2)ccc1OCCCCCCCCn1ccnc1
MDA-MB-231 breast
  GI50: 540 nM
  TGI: 4610 nM
MDA-MB-468 breast
  GI50: 155 nM
  TGI: 694 nM
DU-145 prostate
  GI50: 407 nM
  TGI: 14300 nM
EKVX NSCLC
  GI50: 422 nM
  TGI: 13300 nM
MCF7 breast
  GI50: 312 nM
  TGI: 10700 nM
MOLT-4 leukemia
  GI50: 565 nM
  TGI: 17700 nM
OVCAR-3 ovarian
  GI50: 366 nM
  TGI: 13100 nM
OVCAR-5 ovarian
  GI50: 456 nM
  TGI: 11500 nM
T-47D breast
  GI50: 594 nM
  TGI: 21500 nM
NCI-H226 lung
  GI50: 332 nM
  TGI: 1790 nM
ACHN renal
  GI50: 547 nM
  TGI: 13200 nM
IGROV1 ovarian
  GI50: 634 nM
  TGI: 12400 nM
NCI-H23 lung
  GI50: 262 nM
  TGI: 4060 nM
K-562 leukemia
  GI50: 283 nM
  TGI: 11200 nM
CAKI-1 renal
  GI50: 580 nM
  TGI: 12000 nM
A549 NSCLC
  GI50: 803 nM
  TGI: 14900 nM
UACC-62 melanoma
  GI50: 494 nM
  TGI: 7580 nM
HCT-15 colon
  GI50: 361 nM
  TGI: 11500 nM
HT29 colon
  GI50: 239 nM
  TGI: 667 nM
SNB-75 CNS
  GI50: 418 nM
  TGI: 7300 nM
U251 CNS
  GI50: 355 nM
  TGI: 3100 nM
SF-295 CNS
  GI50: 259 nM
  TGI: 929 nM
SK-MEL-28 melanoma
  GI50: 1010 nM
  TGI: 8680 nM
786-0 renal
  GI50: 483 nM
  TGI: 4580 nM
KM12 colon
  GI50: 444 nM
  TGI: 13600 nM
HCC-2998 colon
  GI50: 224 nM
  TGI: 1760 nM
PC-3 prostate
  GI50: 460 nM
  TGI: 16500 nM
CCRF-CEM leukemia
  GI50: 371 nM
  TGI: 12400 nM
HCT-116 colon
  GI50: 375 nM
  TGI: 11400 nM
A498 renal
  GI50: 8120 nM
  TGI: 23700 nM
HOP-62 NSCLC
  GI50: 441 nM
  TGI: 15200 nM
SF-268 CNS
  GI50: 1220 nM
  TGI: 16600 nM
NCI-H522 lung
  GI50: 245 nM
  TGI: 986 nM
OVCAR-8 ovarian
  GI50: 471 nM
  TGI: 2950 nM
SNB-19 CNS
  GI50: 753 nM
  TGI: 17700 nM
RXF 393 renal
  GI50: 231 nM
  TGI: 1570 nM
HS 578T breast
  GI50: 991 nM
  TGI: 12100 nM
RPMI-8226 leukemia
  GI50: 352 nM
  TGI: 1630 nM
HOP-92 NSCLC
  GI50: 589 nM
  TGI: 7870 nM
BT-549 breast
  GI50: 1450 nM
  TGI: 11100 nM
SF-539 CNS
  GI50: 227 nM
  TGI: 567 nM
SW-620 colon
  GI50: 463 nM
  TGI: 20900 nM
OVCAR-4 ovarian
  GI50: 2890 nM
  TGI: 35300 nM
LOX IMVI melanoma
  GI50: 327 nM
  TGI: 1860 nM
SK-OV-3 ovarian
  GI50: 512 nM
  TGI: 14900 nM
NCI-H460 lung
  GI50: 388 nM
  TGI: 11600 nM
UO-31 renal
  GI50: 680 nM
  TGI: 8270 nM
SN12C renal
  GI50: 440 nM
  TGI: 7870 nM
SK-MEL-5 melanoma
  GI50: 325 nM
  TGI: 1170 nM
COLO 205 colon
  GI50: 354 nM
  TGI: 1450 nM
HL-60(TB) leukemia
  GI50: 211 nM
  TGI: 659 nM
SR leukemia
  GI50: 327 nM
  TGI: 19400 nM
M14 melanoma
  GI50: 323 nM
  TGI: 1310 nM
MALME-3M melanoma
  GI50: 323 nM
  TGI: 1590 nM
MDA-MB-435
  GI50: 225 nM
  TGI: 573 nM
UACC-257 melanoma
  GI50: 1470 nM
  TGI: 13000 nM
TK-10 renal
  GI50: 1460 nM
  TGI: 17200 nM

## COc1cc(Nc2ncc(-c3ccccc3)o2)cc(OC)c1OC
MDA-MB-468 breast
  GI50: 74.4 nM
  TGI: 1100 nM

## CCc1ccc(/C=C2/SC(=S)NC2=O)cc1
MDA-MB-468 breast
  GI50: 20300 nM
  TGI: 69400 nM

## O=c1c2c(=NCCCN3CCCC3)cc3c(=O)n(CCCN4CCCC4)c(=O)c4c(NCCCN5CCCC5)cc(c(O)n1CCCN1CCCC1)c2c4-3
MDA-MB-468 breast
  GI50: 1740 nM
  TGI: 4680 nM

## CCOc1ccc(N2C(N)=NC(N)=NC2(C)C)cc1
MDA-MB-468 breast
  GI50: 20800 nM
  TGI: > 100000 nM

## O=C(N/N=C\c1cc(Cl)ccc1O)N/N=C/c1cc(Cl)ccc1O
MDA-MB-468 breast
  GI50: 2580 nM
  TGI: > 100000 nM

## CCNC1=CC(=O)c2ncccc2C1=O
MDA-MB-468 breast
  GI50: 2110 nM
  TGI: 7550 nM

## C=C(C)[C@@H]1CC[C@]2(C#N)CC[C@]3(C)[C@H](CC[C@@H]4[C@@]5(C)CCCNC(C)(C)[C@@H]5CC[C@]43C)[C@@H]12
MDA-MB-468 breast
  GI50: 1750 nM
  TGI: 3210 nM

## COc1cc(SC)ccc1C(=O)N1CCCC(C)C1 (configuration not stated)
MDA-MB-468 breast
  GI50: 26100 nM
  TGI: > 100000 nM

## Fc1ccc(-c2c(-c3ccncc3)n(CCN3CCOCC3)c3cccnc23)cc1
MDA-MB-468 breast
  GI50: > 25000 nM
  TGI: > 25000 nM
